The values below come from US6716831B1, “2,4-diamino-pyrimidine deprivatives having anti-cell proliferative activity” (AstraZeneca AB, priority 1999, dated 2004).

pIC50: −log10 of the molar value.

The target in this assay is T1, human Focal Adhesion Kinase (FAK) (Homo sapiens, UniProt Q05397).
T1 construct: FAK (full length human cDNA described by Andre et al); 6-histidine tag (N); made in house; host or cells: Sf21 insect cells (baculovirus, pFastbac 1)
Kind of assay: FAK3 Kinase Inhibition Assay. It counts as biochemical. Particulars: in vitro enzyme assay, Poly (Glu, Ala, Tyr) substrate; read-out: FAK inhibitory activity IC50. The source says: FAK3 Kinase Inhibition Assay
This assay determines the ability of a test compound to inhibit tyrosine kinase activity of human Focal Adhesion Kinase (FAK).
DNA encoding FAK is obtained by total gene synthesis (Edwards M, International Biotechnology Lab 5(3), 19-25, 1987) or by cloning. These are then expressed in a suitable expression system to obtain polypeptide with tyrosine kinase activity.
Active FAK protein has been previously expressed in a baculovirus system using a similar N-terminal 6-histidine tag (Protein Expression And Purification, 1996, 7: 12-18). The human FAK cDNA was cloned into the baculovirus transplacement vector, pFastbac 1 (Life Technologies), and the recombinant construct was co-transfected into insect cells (for example Spodoptera frugiperda 21(Sf21)) with viral DNA to prepare recombinant baculovirus (details of the methods for the assembly of recombinant DNA molecules and the preparation and use of recombinant baculovirus can be found in standard texts for example Sambrook et al, 1989, Molecular cloning—A Laboratory Manual, 2nd edition, Cold Spring Harbour Laboratory Press and O'Reilly et al, 1992, Baculovirus Expression Vectors—A Laboratory Manual, W.H. Freeman and Co, New York. Details specific to the use of the pFastbac (‘Bac to Bac’) system are provided in Anderson et al., 1995, FOCUS (Life Technologies Bulletin Magazine), 17, p53.) […]

T1 sequence (Q05397 whole entry): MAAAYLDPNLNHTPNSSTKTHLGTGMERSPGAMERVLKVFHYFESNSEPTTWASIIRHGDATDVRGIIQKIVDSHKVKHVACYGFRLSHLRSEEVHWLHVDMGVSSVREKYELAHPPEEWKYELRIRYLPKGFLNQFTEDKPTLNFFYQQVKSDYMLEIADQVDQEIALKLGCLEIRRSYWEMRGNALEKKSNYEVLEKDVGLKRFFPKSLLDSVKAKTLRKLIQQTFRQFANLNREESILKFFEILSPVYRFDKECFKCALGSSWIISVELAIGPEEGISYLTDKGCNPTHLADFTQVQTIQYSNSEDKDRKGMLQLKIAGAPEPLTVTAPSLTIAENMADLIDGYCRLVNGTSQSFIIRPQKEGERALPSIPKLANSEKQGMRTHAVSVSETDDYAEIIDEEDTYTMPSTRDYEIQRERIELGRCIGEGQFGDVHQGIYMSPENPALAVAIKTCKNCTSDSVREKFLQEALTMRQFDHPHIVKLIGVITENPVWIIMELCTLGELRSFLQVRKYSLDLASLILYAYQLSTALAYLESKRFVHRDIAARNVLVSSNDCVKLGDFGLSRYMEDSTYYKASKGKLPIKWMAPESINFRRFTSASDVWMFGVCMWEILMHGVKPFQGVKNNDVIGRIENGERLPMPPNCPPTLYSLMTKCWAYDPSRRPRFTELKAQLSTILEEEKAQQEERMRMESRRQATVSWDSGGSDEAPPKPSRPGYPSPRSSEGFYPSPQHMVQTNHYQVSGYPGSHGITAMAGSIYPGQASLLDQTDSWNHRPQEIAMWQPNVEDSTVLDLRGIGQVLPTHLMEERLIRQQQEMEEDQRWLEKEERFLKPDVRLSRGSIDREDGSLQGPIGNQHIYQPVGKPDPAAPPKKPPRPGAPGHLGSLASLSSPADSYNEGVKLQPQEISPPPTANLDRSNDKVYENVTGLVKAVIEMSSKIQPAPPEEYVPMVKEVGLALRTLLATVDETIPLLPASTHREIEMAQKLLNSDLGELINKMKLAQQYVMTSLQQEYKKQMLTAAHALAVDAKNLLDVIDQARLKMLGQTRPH

In the case of `CN(C)CC(O)COc1ccc(Nc2nccc(N3CCc4cc(Br)ccc43)n2)cc1` (stereo not shown) [Example 3], the pIC50 – broadly, the negative decadic logarithm of the IC50, by convention in mol/L – is 6.26.
